According to PMC9421656, “Beyond Retigabine: Design, Synthesis, and Pharmacological Characterization of a Potent and Chemically Stable Neuronal Kv7 Channel Activator with Anticonvulsant Activity” (Journal of Medicinal Chemistry, 2022):
Where “and” joins values, the source holds several entries; their conditions need not be identical. Equal entries are not always repeated. Entries after “also recorded” stand apart in the source; their conditions may differ.

What was measured:
[1] = target: T1, Kv7.2 S303A channels (Homo sapiens, UniProt O43526, S303A); assay: Whole-cell patch-clamp on homomeric Kv7.2 S303A mutant channels; type: cell-based; settings: 10 μM RET or 1 μM 60
T1 construct: expressed in transfected cells; host or cells: CHO cells, transient transfection (pcDNA3.1)
Source text: Current scale, 200 pA; time scale, 200 ms. (B,C) Dose–response curves reporting the effects of the 3 indicated compounds on the V1/2 shift (ΔV1/2) in mV (B) and on maximal current density (Idrug/Icontrol; C) calculated at +20 mV for Kv7.2/Kv7.3 channels.
Channel subunits were expressed in Chinese hamster ovary (CHO) cells by transient transfection, using plasmids containing cDNAs encoding human Kv7.2 and/or Kv7.3, all cloned in the pcDNA3.1 vector. According to the experimental protocol, these plasmids were expressed individually or in combination, together with a plasmid-expressing enhanced green fluorescent protein (Clontech, Palo Alto, CA) used as a transfection marker. Total cDNA in the transfection mixture was kept at 4 μg. CHO cells were grown in 100 mm plastic Petri dishes in Dulbecco’s modified Eagle’s medium containing 10% fetal bovine serum, nonessential amino acids (0.1 mM), penicillin (50 U/mL), and streptomycin ([…]) in a humidified atmosphere at 37 °C with 5% CO2.
Currents from CHO cells were recorded at room temperature (20–22 °C) using the whole-cell configuration of the patch-clamp technique, with glass micropipettes of 3–5 MΩ resistance. During the recording, constant perfusion of extracellular solution was maintained. […] The pipette (intracellular) solution contained (in mM): 140 KCl, 2 MgCl2, 10 EGTA, 10 HEPES, 5 Mg^2+-ATP, at pH 7.3–7.4, with KOH. […]

[2] = target: Kv7.2/Kv7.3 channels (Homo sapiens, UniProt O43525+O43526); assay: FluxOR thallium-sensitive fluorescence-based assay in CHO cells stably expressing Kv7.2 + Kv7.3; type: cell-based; parameters: expressed in transfected cells; settings: for Slope of the fluorescent signal at 10 μM: initial slope of FluxOR signal between 5 and 15 s, mean ± SEM; for EC50: FluxOR dose-response, slope parameter, read-out: EC50 (initial slope of the fluorescence signal)
[3] = system: PTZ-induced seizures; assay: Pentylenetetrazol (PTZ)-induced acute seizures in mice; type: in vivo, C57Bl/6 mice; settings: for Seizure score (Lüttjohann's scale): 30 min before PTZ 100 mg/kg s.c.; for Latency to maximal seizures: 30 min before PTZ; for Survival rate in PTZ seizure model: end of 60 min observation; for Minimum effective dose: i.p., PTZ model
Method: A subcutaneous (s.c.) injection of 100 mg/kg PTZ in mice is able to trigger convulsive behavior whose intensity can be assessed and quantified according to the revised Lüttjohann’s scale (see Materials and Methods),[40] using a 9-point severity score ranging from 0 (whisker trembling) to 8 (wild jumping). For each animal, the maximal severity score (Figure 5A) and the time latency required to reach such values (Figure 5B) were recorded.
Food and water were available ad libitum. Animals were experimentally naive and were used only once.
Thus, each dose was dissolved to allow injection of 0.01 mL/g, i.p. The control group was represented by mice injected only with vehicle solution (saline containing 2% Tween-20 and 2% PEG-400).
PTZ was injected, and animals were placed in clear Plexiglass boxes for observation of seizure activity. The severity of convulsions (from minimal “clonic” to maximal “generalized tonic–clonic”) as well as the latency to onset of maximal seizure was recorded.
0 = whisker trembling, 1 = sudden behavioral arrest, 2 = facial jerking, 3 = neck jerks, 4 = clonic seizures (sitting), 5 = tonic clonic seizures (lying on belly), 6 = clonic seizures (lying on side), 7 = tonic clonic seizures (lying on side), 8 = wild jumping. The behavioral assessments described above were performed in a blind manner and the observers had to reach a unanimous agreement regarding the scoring of the behavior.
The number of animals needed for the experiment was determined using the power analysis software GPower version 3.1.92. The required minimum sample size was 8 mice per group. Statistical analyses were performed using GraphPad Prism (GraphPad Software, LaJolla, CA) using a one-way analysis of variance with the Tukey post-hoc test. The P value of <0.05 was accepted as indicative of a statistically significant difference.

[4] = target: T2, Kv7.2 W236L channels (Homo sapiens, UniProt O43526, W236L); assay: Whole-cell patch-clamp on homomeric Kv7.2 W236L mutant channels; type: cell-based; settings: 10 μM RET or 1 μM 60
T2 construct: expressed in transfected cells; host or cells: CHO cells, transient transfection (pcDNA3.1)

[5] = 3 mg/kg i.p., listed as Retigabine

For `CCOC(=O)Nc1ccc(NCc2ccc(F)cc2)cc1N` [RET, retigabine], the “Kv7 opening ability in S303A channels” value [1] was “slightly but significantly reduced”, the “Slope of the fluorescent signal at 10 μM” value ([2]; 10 μM) was 0.0270±0.0052 and the EC50 [2] was 11.2 ± 1.6 µM. For the same compound, the “Seizure score (Lüttjohann's scale)” value ([3]; 1 mg/kg i.p.) was 6.9 ± 0.3, the “Latency to maximal seizures” value ([3]; 3 mg/kg i.p.) was 1041.4±223.2 (at 3 mg/Kg) s and the “Seizure score (Lüttjohann's scale)” value ([3]; 3 mg/kg i.p.) was 7.3±0.3 (at 3 mg/Kg). The “Seizure score (Lüttjohann's scale)” value [3, 5] was 7.3 ± 0.3, the “Latency to maximal seizures” value [3, 5] was 1041.4 ± 223.2 s and the “Survival rate in PTZ seizure model” value ([3]; 3 mg/kg i.p.) was 40% (at 3 mg/Kg). The “Survival rate in PTZ seizure model” value ([3]; 3 mg/kg i.p., listed as retigabine) was 40%, the Minimum effective dose [3] was 3 mg/kg and the “Kv7 opening ability in W236L channels” value [4] was “almost fully abolished”.
`CC(C)(C)CC(=O)Nc1ccc(NCc2ccc(C(F)(F)F)cc2)c(F)c1N` [compound 60, N-(2-Amino-3-fluoro-4-((4-(trifluoromethyl)benzyl)amino)phenyl)-3,3-dimethylbutanamide] was tested, and the “Kv7 opening ability in S303A channels” value [1] was “slightly but significantly reduced”, the “Kv7 opening activity (in words)” value ([2]; 10 μM, compared with retigabine or the reference compound of the subseries) was “enhanced; also recorded: higher than that of retigabine” and the “Slope of the fluorescent signal at 10 μM” value ([2]; 10 μM) was 0.0594±0.0026. The EC50 [2] was 3.2 ± 1.7 µM, the “Latency to maximal seizures” value ([3]; 0.3 mg/kg i.p.) was 1159.7 ± 169.4 s and 1159.7±169.4 (at 0.3 mg/Kg) s and the “Animals surviving in PTZ seizure model” value ([3]; 1 mg/kg i.p., surviving/treated animals) was 8/8. For the same compound, the “Survival rate in PTZ seizure model after XE991 pretreatment” value ([3]; compound 60 with XE991 3 mg/kg i.p. pretreatment) was 75%, the Minimum effective dose [3] was 0.3 mg/kg and the “Kv7 opening ability in W236L channels” value [4] was “almost fully abolished”.
